From article PMC6323127 (Saudi Pharmaceutical Journal : SPJ, 2018)
Values after ≈ are worked out from the molar mass of the structure shown.

Key:
[1] = target: T1, CYP3A4 (Homo sapiens, UniProt P08684); conditions: for relative potency (AEM IC50)/(other anthraquinone IC50), CYP3A4-mediated erythromycin demethylation: AEM as reference chemical; for inhibitor strength toward CYP3A4 activity (in words): human liver microsomes
[2] = target: T2, CYP1A2 (Homo sapiens, UniProt P05177); conditions: for relative potency (AEM IC50)/(other anthraquinone IC50), CYP1A2-mediated caffeine demethylation: AEM as reference chemical; for inhibitor strength toward CYP1A2 activity (in words): human liver microsomes
T2 sequence (P05177 1-516): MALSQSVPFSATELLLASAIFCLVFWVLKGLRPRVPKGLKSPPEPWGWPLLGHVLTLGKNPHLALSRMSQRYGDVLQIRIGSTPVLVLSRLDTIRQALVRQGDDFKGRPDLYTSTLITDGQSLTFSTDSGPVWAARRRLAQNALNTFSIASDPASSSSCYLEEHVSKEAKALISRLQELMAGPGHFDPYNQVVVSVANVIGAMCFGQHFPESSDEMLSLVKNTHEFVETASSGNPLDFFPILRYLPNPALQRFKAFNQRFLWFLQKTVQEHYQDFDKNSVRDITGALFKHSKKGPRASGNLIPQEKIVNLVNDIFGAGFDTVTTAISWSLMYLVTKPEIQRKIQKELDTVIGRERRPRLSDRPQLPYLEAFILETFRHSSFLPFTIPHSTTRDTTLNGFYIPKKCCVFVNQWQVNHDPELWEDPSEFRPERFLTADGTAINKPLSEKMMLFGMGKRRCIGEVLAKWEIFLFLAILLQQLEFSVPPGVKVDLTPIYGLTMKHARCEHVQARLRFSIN

[3] = target: T2, CYP1A2; test: in vitro; conditions: microsomes, pH 7.4
[4] = target: T1, CYP3A4; test: biochemical
[5] = target: T2, CYP1A2; test: biochemical
[6] = tested on: CYP1A1/2; conditions: in vitro; ref Ayrton et al., 1987; cited from earlier work

T1 sequence (P08684 whole entry): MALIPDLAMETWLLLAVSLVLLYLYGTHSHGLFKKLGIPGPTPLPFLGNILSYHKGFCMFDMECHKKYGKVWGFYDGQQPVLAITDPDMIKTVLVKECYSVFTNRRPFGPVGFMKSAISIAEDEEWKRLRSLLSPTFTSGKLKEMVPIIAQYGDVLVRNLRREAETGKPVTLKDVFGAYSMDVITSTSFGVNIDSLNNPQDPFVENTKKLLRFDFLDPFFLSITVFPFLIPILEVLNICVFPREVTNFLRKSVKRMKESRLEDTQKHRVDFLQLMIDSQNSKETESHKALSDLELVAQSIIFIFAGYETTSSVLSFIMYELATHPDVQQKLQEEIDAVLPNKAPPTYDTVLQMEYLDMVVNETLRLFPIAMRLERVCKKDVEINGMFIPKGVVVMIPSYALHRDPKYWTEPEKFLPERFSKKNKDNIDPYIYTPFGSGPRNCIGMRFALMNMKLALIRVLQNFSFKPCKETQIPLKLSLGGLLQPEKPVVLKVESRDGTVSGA

| Structure (SMILES) | relative potency (AEM IC50)/(other anthraquinone IC50), CYP3A4-mediated erythromycin demethylation [1] [unitless] | relative potency (AEM IC50)/(other anthraquinone IC50), CYP1A2-mediated caffeine demethylation [2] [unitless] | inhibitor strength toward CYP1A2 activity (in words) [2] | IC50 [3] [µg/mL] | IC50 [4] [µM] | inhibitor strength toward CYP3A4 activity (in words) [1] | slope of CYP1A2 inhibition-log concentration (or dilution volume) curve ([2]; Fig. 5) | IC50 [5] [µM] | inhibitor strength toward rat liver microsomal CYP1A1/2 activity (in words) [6] |
| --- | --- | --- | --- | --- | --- | --- | --- | --- | --- |
| COc1cc(O)c2c(c1)C(=O)c1cc(C)cc(O)c1C2=O [Physcion] | < 0.04 | 0.98 | potent inhibitors | 0.43 (≈ 1.51 µM) | > 220 | – | – | – | – |
| O=C1c2cccc(O)c2C(=O)c2c(O)cc(CO)cc21 [Aloe-emodin] | 1.00 | 1.00 | potent inhibitors | – | 8.29 | moderate inhibitors | 1.74 | 1.55 | – |
| O=C1c2ccc(O)cc2C(=O)c2ccc(O)cc21 [2,6-dihydroxyanthraquinone] | – | – | – | – | – | – | – | – | potent inhibitor |
| O=C(O)c1cc(O)c2c(c1)[C@@H]([C@H]1c3cc(C(=O)O)cc(O)c3C(=O)c3c(O[C@@H]4O[C@H](CO)[C@@H](O)[C@H](O)[C@H]4O)cccc31)c1cccc(O[C@@H]3O[C@H](CO)[C@@H](O)[C@H](O)[C@H]3O)c1C2=O [Sennoside B] | – | – | moderate inhibitor | – | – | moderate inhibitor | – | 33.1 | – |
| O=C(O)c1cc(O)c2c(c1)[C@H]([C@H]1c3cc(C(=O)O)cc(O)c3C(=O)c3c(O[C@@H]4O[C@H](CO)[C@@H](O)[C@H](O)[C@H]4O)cccc31)c1cccc(O[C@@H]3O[C@H](CO)[C@@H](O)[C@H](O)[C@H]3O)c1C2=O [Sennoside A] | – | – | weak inhibitor | – | – | weak inhibitor | – | > 155 | – |
| Cc1cc(O)c2c(c1)C(=O)c1cccc(O)c1C2=O [Chrysophanol] | – | – | potent inhibitors | – | – | – | – | 1.73 | – |
| O=C(O)c1cc(O)c2c(c1)C(=O)c1cccc(O)c1C2=O [Rhein] | 0.08 | 0.68 | potent inhibitors | – | 97.6 | weak inhibitors | – | 2.18 | – |
| Cc1cc(O)c2c(c1)C(=O)c1cc(O)cc(O)c1C2=O [Emodin] | 0.55 | 0.02 | weak CYP1A2 inhibitor | – | 15.2 | moderate inhibitors | – | 67 | – |
